Test results published in ChEMBL document CHEMBL3867480 (Bioorg Med Chem, 2016).
Converted amounts (≈) assume the structure as drawn.

Assays:
[1] = target: 72 kDa type IV collagenase (Homo sapiens, UniProt P08253); assay: Inhibition of recombinant human […]-activated MMP2 using Cy3-PLGLK(Cy5Q)AR-NH2 as substrate measured after 40 mins by spectrofluorimetric method
Stromelysin-2 = Stromelysin-2 (Homo sapiens, UniProt P09238); assay: Inhibition of recombinant human […]-activated MMP10 using Cy3-PLGLK(Cy5Q)AR-NH2 as substrate measured after 40 mins by spectrofluorimetric method
Stromelysin-2, sequence (P09238 whole entry): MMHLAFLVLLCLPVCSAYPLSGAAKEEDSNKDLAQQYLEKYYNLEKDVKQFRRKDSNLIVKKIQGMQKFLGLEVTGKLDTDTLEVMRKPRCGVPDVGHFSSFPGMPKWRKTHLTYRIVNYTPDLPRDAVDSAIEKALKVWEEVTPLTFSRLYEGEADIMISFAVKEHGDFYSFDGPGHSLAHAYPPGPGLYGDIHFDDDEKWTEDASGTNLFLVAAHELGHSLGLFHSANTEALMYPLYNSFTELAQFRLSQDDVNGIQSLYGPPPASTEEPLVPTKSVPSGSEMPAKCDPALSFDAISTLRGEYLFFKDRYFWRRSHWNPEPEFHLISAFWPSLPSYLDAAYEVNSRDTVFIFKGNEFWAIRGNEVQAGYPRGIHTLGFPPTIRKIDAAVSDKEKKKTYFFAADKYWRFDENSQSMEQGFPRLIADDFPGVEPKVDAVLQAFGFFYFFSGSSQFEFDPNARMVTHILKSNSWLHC

Neutrophil collagenase = Neutrophil collagenase (Homo sapiens, UniProt P22894); assay: Inhibition of recombinant human […]-activated MMP8 using Cy3-PLGLK(Cy5Q)AR-NH2 as substrate measured after 40 mins by spectrofluorimetric method
Neutrophil collagenase, sequence (P22894 whole entry): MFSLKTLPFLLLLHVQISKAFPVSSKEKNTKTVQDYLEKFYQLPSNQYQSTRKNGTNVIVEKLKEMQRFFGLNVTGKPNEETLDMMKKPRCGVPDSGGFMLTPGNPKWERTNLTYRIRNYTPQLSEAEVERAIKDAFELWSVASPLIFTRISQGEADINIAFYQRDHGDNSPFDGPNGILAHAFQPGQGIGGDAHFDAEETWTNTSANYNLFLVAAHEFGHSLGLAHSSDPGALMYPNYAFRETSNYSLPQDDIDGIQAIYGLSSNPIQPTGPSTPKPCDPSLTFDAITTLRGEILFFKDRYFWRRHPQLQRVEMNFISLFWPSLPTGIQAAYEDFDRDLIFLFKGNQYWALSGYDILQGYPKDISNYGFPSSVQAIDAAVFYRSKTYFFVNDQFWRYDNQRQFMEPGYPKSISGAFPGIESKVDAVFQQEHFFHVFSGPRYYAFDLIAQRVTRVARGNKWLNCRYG

Collagenase 3 = Collagenase 3 (Homo sapiens, UniProt P45452)
Description: Inhibition of recombinant human AMPA-activated MMP13 using Cy3-PLGLK(Cy5Q)AR-NH2 as substrate measured after 40 mins by spectrofluorimetric method

Stromelysin-1 = Stromelysin-1 (Homo sapiens, UniProt P08254); assay: Inhibition of recombinant human […]-activated MMP3 using Cy3-PLGLK(Cy5Q)AR-NH2 as substrate measured after 40 mins by spectrofluorimetric method
Stromelysin-1, sequence (P08254 whole entry): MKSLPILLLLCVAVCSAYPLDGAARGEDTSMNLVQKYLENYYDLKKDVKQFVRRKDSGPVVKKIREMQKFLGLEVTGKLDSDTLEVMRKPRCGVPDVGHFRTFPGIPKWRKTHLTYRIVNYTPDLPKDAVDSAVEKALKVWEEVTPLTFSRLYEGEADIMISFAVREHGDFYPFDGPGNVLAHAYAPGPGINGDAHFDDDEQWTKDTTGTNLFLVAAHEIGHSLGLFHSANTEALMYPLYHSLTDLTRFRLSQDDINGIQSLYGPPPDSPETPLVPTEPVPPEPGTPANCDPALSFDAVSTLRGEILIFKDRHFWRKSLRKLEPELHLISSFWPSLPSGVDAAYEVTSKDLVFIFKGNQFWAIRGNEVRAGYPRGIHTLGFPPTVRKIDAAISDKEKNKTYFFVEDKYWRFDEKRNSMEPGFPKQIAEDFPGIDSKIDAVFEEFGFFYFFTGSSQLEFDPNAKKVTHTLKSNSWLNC

[2] = target: Macrophage metalloelastase (Homo sapiens, UniProt P39900); assay: Inhibition of recombinant human […]-activated MMP12 using Cy3-PLGLK(Cy5Q)AR-NH2 as substrate measured after 40 mins by spectrofluorimetric method
Macrophage metalloelastase, sequence (P39900 whole entry, the tested form may be a part): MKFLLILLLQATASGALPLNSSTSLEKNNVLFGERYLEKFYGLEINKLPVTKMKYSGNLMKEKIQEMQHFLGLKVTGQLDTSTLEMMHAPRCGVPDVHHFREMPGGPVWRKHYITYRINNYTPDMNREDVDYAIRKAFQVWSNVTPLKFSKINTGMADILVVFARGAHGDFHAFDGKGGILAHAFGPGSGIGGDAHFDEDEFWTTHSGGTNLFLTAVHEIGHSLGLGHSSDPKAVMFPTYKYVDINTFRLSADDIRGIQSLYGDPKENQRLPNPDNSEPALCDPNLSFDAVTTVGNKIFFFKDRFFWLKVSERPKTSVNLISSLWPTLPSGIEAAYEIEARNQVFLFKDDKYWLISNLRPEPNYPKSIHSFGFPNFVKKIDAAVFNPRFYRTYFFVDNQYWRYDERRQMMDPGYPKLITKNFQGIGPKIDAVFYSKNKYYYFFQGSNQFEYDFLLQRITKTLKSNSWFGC

[3] = target: Disintegrin and metalloproteinase domain-containing protein 17 (Homo sapiens, UniProt P78536); assay: Inhibition of recombinant human TACE using Cy3-PLAQAV(Cy5Q-L-2,3-diaminopropionic acid)-RSSSR-NH2 as substrate measured after 40 mins by spectrofluorimetric method
Disintegrin and metalloproteinase domain-containing protein 17, sequence (P78536 whole entry, the tested form may be a part): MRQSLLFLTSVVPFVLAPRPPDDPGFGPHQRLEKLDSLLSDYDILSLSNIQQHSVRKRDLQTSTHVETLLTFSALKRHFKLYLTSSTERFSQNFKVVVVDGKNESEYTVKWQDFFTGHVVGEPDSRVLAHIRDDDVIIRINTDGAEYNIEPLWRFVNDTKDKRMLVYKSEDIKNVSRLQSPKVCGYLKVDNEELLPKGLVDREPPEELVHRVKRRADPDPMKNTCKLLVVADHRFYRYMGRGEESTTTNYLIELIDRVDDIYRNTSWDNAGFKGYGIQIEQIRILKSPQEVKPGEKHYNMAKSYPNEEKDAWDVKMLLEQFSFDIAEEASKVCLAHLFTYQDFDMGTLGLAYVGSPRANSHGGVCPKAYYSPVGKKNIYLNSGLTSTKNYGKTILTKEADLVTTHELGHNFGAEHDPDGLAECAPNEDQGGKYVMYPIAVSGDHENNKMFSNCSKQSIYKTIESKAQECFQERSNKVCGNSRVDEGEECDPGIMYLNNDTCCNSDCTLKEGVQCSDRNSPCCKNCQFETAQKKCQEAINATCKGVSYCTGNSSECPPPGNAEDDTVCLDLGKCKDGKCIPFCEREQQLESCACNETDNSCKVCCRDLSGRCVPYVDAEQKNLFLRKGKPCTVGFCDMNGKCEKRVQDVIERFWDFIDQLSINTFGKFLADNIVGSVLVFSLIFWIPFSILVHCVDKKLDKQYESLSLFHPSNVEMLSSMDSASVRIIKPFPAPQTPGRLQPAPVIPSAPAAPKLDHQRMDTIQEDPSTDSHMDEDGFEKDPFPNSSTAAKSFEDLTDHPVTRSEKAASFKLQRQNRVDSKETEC

Interstitial collagenase = target: T1, Interstitial collagenase (Homo sapiens, UniProt P03956); assay: Inhibition of recombinant human […]-activated MMP1 using Cy3-PLGLK(Cy5Q)AR-NH2 as substrate measured after 40 mins by spectrofluorimetric method
T1 sequence (P03956 whole entry): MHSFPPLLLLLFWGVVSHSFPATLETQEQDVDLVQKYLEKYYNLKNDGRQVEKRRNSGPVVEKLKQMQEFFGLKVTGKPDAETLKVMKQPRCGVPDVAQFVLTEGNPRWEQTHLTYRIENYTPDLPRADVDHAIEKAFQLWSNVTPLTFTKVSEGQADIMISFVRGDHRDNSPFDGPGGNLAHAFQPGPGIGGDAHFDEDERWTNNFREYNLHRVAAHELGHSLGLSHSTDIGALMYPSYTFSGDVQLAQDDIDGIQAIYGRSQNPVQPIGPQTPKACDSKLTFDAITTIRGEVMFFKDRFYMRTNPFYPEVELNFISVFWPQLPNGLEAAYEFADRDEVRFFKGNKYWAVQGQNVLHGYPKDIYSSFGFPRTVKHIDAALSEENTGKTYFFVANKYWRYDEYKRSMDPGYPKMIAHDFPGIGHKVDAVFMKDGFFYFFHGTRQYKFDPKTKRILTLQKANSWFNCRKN

[4] = target: Matrix metalloproteinase-9 (Homo sapiens, UniProt P14780); assay: Inhibition of recombinant human […]-activated MMP9 using Cy3-PLGLK(Cy5Q)AR-NH2 as substrate measured after 40 mins by spectrofluorimetric method
Matrix metalloproteinase-9, sequence (P14780 whole entry): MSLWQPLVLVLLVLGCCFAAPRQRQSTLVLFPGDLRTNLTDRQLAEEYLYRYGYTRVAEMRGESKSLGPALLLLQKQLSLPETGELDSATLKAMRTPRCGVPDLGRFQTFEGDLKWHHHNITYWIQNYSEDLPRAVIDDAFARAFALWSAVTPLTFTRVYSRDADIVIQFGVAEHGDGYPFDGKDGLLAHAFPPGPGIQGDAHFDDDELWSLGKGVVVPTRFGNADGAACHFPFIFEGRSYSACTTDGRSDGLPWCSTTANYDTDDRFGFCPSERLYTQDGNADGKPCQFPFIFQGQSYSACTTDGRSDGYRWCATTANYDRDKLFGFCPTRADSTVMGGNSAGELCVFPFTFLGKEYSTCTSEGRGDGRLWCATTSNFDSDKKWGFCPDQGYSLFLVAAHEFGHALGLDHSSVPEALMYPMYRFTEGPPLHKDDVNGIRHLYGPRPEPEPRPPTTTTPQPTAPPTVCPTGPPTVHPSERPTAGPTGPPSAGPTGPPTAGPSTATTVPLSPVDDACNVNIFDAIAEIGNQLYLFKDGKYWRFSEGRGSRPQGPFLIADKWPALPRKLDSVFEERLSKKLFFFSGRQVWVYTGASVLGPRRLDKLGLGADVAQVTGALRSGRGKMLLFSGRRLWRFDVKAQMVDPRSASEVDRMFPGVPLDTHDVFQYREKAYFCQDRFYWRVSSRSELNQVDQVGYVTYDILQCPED

Matrilysin = target: T2, Matrilysin (Homo sapiens, UniProt P09237); assay: Inhibition of recombinant human […]-activated MMP7 using Cy3-PLGLK(Cy5Q)AR-NH2 as substrate measured after 40 mins by spectrofluorimetric method
T2 sequence (P09237 whole entry): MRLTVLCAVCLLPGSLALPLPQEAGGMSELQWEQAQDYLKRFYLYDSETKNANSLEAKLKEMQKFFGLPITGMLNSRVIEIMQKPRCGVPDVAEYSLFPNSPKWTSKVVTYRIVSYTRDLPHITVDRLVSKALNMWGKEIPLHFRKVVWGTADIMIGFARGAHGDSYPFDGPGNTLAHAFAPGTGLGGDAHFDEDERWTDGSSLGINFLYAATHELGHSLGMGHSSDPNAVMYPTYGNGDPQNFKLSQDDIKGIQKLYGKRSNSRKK

[5] = target: Matrix metalloproteinase-14 (Homo sapiens, UniProt P50281); assay: Inhibition of recombinant human GST-tagged MMP14 using Cy3-PLGLK(Cy5Q)AR-NH2 as substrate measured after 40 mins by spectrofluorimetric method
[6] = Clearance in rat at 0.1 mg/kg, iv or 1 mg/kg, po; format: ADME, organism-based; conditions: in vivo
[7] = Clearance in rat liver microsomes; format: ADME; conditions: read-out: CLH
CYP3A4 = CYP3A4 (Homo sapiens, UniProt P08684); assay: Inhibition of CYP3A4 (unknown origin) at 10 uM; format: ADME
CYP3A4, sequence (P08684 whole entry): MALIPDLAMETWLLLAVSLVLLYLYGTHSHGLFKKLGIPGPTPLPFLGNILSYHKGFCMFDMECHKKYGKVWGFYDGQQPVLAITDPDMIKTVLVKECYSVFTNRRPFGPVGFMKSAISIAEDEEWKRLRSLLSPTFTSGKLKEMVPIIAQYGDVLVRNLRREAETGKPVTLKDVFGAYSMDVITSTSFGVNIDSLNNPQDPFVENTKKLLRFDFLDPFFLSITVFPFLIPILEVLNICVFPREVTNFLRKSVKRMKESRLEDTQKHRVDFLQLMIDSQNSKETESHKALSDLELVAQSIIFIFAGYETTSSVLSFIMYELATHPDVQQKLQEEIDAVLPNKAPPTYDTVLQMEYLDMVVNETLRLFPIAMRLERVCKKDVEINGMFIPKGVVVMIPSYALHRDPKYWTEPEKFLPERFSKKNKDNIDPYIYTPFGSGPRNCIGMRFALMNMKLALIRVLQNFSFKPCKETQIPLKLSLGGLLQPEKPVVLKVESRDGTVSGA

[8] = Permeability of the compound at pH 7.4 by PAMPA assay; format: ADME; conditions: read-out: permeability
[9] = Solubility of the compound at pH 6.8; format: physicochemical; conditions: buffer
[10] = Oral bioavailability in rat at 1 mg/kg; format: ADME, organism-based; conditions: in vivo
[11] = Clearance in human liver microsomes; format: ADME; conditions: read-out: CLH
[12] = Volume of distribution in rat at 0.1 mg/kg, iv or 1 mg/kg, po; format: ADME, organism-based; conditions: in vivo

72 kDa type IV collagenase, sequence (P08253 whole entry): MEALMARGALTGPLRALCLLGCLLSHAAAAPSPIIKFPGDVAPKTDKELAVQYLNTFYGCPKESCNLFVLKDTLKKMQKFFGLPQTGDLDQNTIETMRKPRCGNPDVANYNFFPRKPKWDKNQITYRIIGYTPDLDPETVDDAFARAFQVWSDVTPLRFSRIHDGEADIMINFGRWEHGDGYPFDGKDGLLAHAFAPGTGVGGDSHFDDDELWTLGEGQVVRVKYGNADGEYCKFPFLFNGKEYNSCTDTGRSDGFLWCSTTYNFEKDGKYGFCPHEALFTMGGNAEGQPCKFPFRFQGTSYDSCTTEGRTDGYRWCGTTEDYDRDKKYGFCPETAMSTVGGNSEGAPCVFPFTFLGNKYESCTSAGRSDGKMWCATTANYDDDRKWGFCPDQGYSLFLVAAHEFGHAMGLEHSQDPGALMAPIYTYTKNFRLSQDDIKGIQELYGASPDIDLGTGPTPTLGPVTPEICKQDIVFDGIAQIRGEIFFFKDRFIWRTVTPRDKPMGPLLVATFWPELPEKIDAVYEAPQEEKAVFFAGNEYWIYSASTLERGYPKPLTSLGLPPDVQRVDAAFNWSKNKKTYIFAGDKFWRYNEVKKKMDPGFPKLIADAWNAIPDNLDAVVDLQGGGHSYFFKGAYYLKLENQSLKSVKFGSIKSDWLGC

SMILES	IC50 [1] [nM]	IC50 (Stromelysin-2) [nM]	IC50 (Neutrophil collagenase) [nM]	IC50 (Collagenase 3) [nM]	IC50 (Stromelysin-1) [nM]	IC50 [2] [nM]	IC50 [3] [nM]	IC50 (Interstitial collagenase) [nM]	IC50 [4] [nM]	IC50 (Matrilysin) [nM]	IC50 [5] [nM]	clearance [6] [mL/min/kg]	microsomal CLint [7] [µL/min/mg]	inhibition at 10 µM (CYP3A4) [%]	Papp [8] [×10⁻⁶ cm/s]	solubility [9] [µg/mL]	bioavailability [10] [%]	microsomal CLint [11] [µL/min/mg]	Vd [12] [L/kg]
CC(C)C(CS(=O)(=O)c1ccc(-c2cccc(CNC(=O)c3nc4ccccc4c(=O)[nH]3)c2)cc1)N(O)C(N)=O (stereo not given)	< 10	< 10	19	0.26															
O=C(NCc1cccc(OCCCOc2nc[nH]n2)c1)c1nc2scc(-c3cccc(Cl)c3)c2c(=O)[nH]1	510	820	> 1000																
CC(C)[C@H](NS(=O)(=O)c1ccc(-c2cccc(CNC(=O)c3nc4ccccc4c(=O)[nH]3)c2)cc1)C(=O)O	8.3	2.4	8.9	0.17	30	16	> 10000	3400	36	1000	140								
CC(=O)N(O)C(CS(=O)(=O)c1ccc(-c2cccc(CNC(=O)c3nc4ccccc4c(=O)[nH]3)c2)cc1)C(C)C (stereo not given)	65	64	110	0.3								< 0.0167	250	99	45.2	0.93 (≈ 1.65 µM)	< 1	250	
O=C(NCc1cccc(N2CCN(C(=O)Cc3cc(=O)[nH][nH]3)CC2)c1)c1nc2ccccc2c(=O)[nH]1	< 10	< 10	< 10	0.36															
CC(C)[C@H](NS(=O)(=O)c1ccc(-c2cccc(CNC(=O)c3nc4ccccc4c(=O)[nH]3)c2)cc1)C(=O)NO	1.9	0.3	0.82	0.0032	1.5	8.1	> 10000	11	4.7	7.3	3.8								
COc1cccc(CNC(=O)c2nc3scc(-c4cccc(Cl)c4)c3c(=O)[nH]2)c1	2600	6300	> 10000	0.12															
O=C(NCc1cccc(N2CCN(C(=O)Cc3nnn[nH]3)CC2)c1)c1nc2ccccc2c(=O)[nH]1	160	640	32	1.5															
O=C(NCc1cccc(OCCCS(=O)(=O)N2CCCCC2C(=O)NO)c1)c1nc2ccccc2c(=O)[nH]1 (stereo not given)	0.57	2.6	1.2	0.052	2.6	1.8	510	> 10000	72	2000	550								
O=C1NC(=O)C(CC(=O)N2CCN(c3cccc(CNC(=O)c4nc5ccccc5c(=O)[nH]4)c3)CC2)N1 (stereo not given)	< 10	< 10	< 10	0.19															
O=C(NCc1cccc(-c2ccc(CS(=O)(=O)Cc3n[nH]c(=O)[nH]3)cc2)c1)c1nc2scc(-c3cccc(Cl)c3)c2c(=O)[nH]1	86	34	1000	0.38															
O=C(NCc1cccc(OCCCOc2nc[nH]n2)c1)c1nc2ccccc2c(=O)[nH]1	32	220	22	0.59															
O=C(NCc1cccc(-c2ccc(CS(=O)(=O)Cc3n[nH]c(=O)[nH]3)cc2)c1)c1nc2ccccc2c(=O)[nH]1	23	150	12	0.071	2400	9500	> 10000	> 10000	> 10000	> 10000	> 10000	5.38	13	29	0.7	0.48 (≈ 0.905 µM)	1.3	7	0.32
CC(C)C(CS(=O)(=O)c1ccc(-c2cccc(CNC(=O)c3nc4ccccc4c(=O)[nH]3)c2)cc1)N(O)C=O (stereo not given)	3	0.35	1.3	0.051	2.5	8.5	> 10000	18	5.3	30	5.4								
CCOCCC1(Oc2ccc(-c3cccc(CNC(=O)c4nc5ccccc5c(=O)[nH]4)c3)cc2)C(=O)NC(=O)NC1=O	110	930	56	0.23	3300	540	> 10000	> 10000	1600	> 10000	3700	0.35		22	9.5	9.1 (≈ 16 µM)	32	12	0.054
O=C(NCc1cccc(N2CCN(C(=O)Cc3n[nH]c(=O)[nH]3)CC2)c1)c1nc2ccccc2c(=O)[nH]1	10	6.2	3.9	0.11	23	260	> 10000	> 10000	2900	> 10000	8900								
O=C(NCc1cccc(OCCCS(=O)(=O)N2CCCCC2C(=O)O)c1)c1nc2ccccc2c(=O)[nH]1 (stereo not given)	14	240	14	0.24	370	300	> 10000	> 10000	> 10000	> 10000	> 10000								
O=C(NCc1cccc(N2CCN(C(=O)Cc3c[nH]cn3)CC2)c1)c1nc2ccccc2c(=O)[nH]1	120	460	45	1.7															
COc1cccc(CNC(=O)c2nc3ccccc3c(=O)[nH]2)c1				5.6 to 12															
